The NIST ThermoML archive (doi:10.1016/j.tca.2007.05.009)
Where “and” joins values, the source holds several entries; their conditions need not be identical. Equal entries are not always repeated. ± gives the expanded uncertainty stated by the source.

Conditions: Crystal

CC/N=C(/N)S [ethylthiourea]
Conditions | vapor or sublimation pressure
356.5 K, Calculated from knudsen effusion weight loss | 0.000282 ± 1.4e-05 kPa
357 K, Calculated from knudsen effusion weight loss | 0.000309 ± 1.6e-05 kPa
360 K, Torsion effusion method | 0.000331 ± 1.7e-05 kPa
360.5 K, Calculated from knudsen effusion weight loss | 0.000417 ± 2.1e-05 kPa
361 K, Torsion effusion method | 0.000437 ± 2.2e-05 kPa
362 K, Calculated from knudsen effusion weight loss | 0.00049 ± 2.5e-05 kPa
363 K, Torsion effusion method | 0.000447 ± 2.2e-05 kPa
364 K, Torsion effusion method | 0.00055 ± 2.8e-05 kPa
365 K, Torsion effusion method | 0.000661 ± 3.3e-05 kPa
366 K, Torsion effusion method | 0.000631 ± 3.2e-05 kPa
366.5 K, Torsion effusion method | 0.000813 ± 4.1e-05 kPa
367 K, Torsion effusion method | 0.000741 ± 3.7e-05 kPa
367.5 K, Calculated from knudsen effusion weight loss | 0.000912 ± 4.6e-05 kPa
368 K, Torsion effusion method | 0.000912 ± 4.6e-05 kPa and 0.000646 ± 3.2e-05 kPa
368.5 K, Torsion effusion method | 0.000794 ± 4e-05 kPa
369 K, Torsion effusion method | 0.000891 ± 4.5e-05 kPa
369.5 K, Torsion effusion method | 0.001175 ± 5.9e-05 kPa
370 K, Torsion effusion method | 0.001047 ± 5.2e-05 kPa and 0.000871 ± 4.4e-05 kPa
370.5 K, Torsion effusion method | 0.001175 ± 5.9e-05 kPa
371 K, Torsion effusion method | 0.001047 ± 5.2e-05 kPa and 0.001288 ± 6.5e-05 kPa and 0.001096 ± 5.5e-05 kPa
372 K, Torsion effusion method | 0.000977 ± 4.9e-05 kPa
373 K, Torsion effusion method | 0.001288 ± 6.5e-05 kPa
374 K, Torsion effusion method | 0.00138 ± 6.9e-05 kPa and 0.001738 ± 8.7e-05 kPa
374.5 K, Torsion effusion method | 0.001349 ± 6.8e-05 kPa
375 K, Torsion effusion method | 0.001862 ± 9.3e-05 kPa [middle of 4 runs]
376 K, Torsion effusion method | 0.001778 ± 8.9e-05 kPa [middle of 4 runs]
377 K, Torsion effusion method | 0.001905 ± 9.5e-05 kPa and 0.001698 ± 8.5e-05 kPa
378 K, Torsion effusion method | 0.002239 ± 0.00011 kPa [middle of 4 runs]
379 K, Torsion effusion method | 0.002692 ± 0.00014 kPa and 0.002884 ± 0.00014 kPa
379.5 K, Torsion effusion method | 0.00263 ± 0.00013 kPa
380 K, Torsion effusion method | 0.002951 ± 0.00015 kPa and 0.002188 ± 0.00011 kPa
380.5 K, Torsion effusion method | 0.002291 ± 0.00012 kPa
